Data published in US11981658B2, “Substituted aminopyridine compounds as EGFR inhibitors” (YUHAN CORPORATION, priority 2021, dated 2024).
Where a name gives a salt, the structure may show the parent alone. Read-outs that look alike come from different tables or passages of the source.

How the values were obtained:
EGFR Del19/T790M/C797S = EGFR Del19/T790M/C797S (Homo sapiens, UniProt P00533, C797S/DEL746-750/T790M); test: Biochemical EGFR kinase inhibition assay (Lance Ultra TR-FRET), triple mutant del19/T790M/C797S
Method in brief: (§1)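 Enzyme reactions lasted 1 hour at room temperature with test compounds between 0.003 and 10 μM, followed by 10 mM EDTA quench.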

EGFR L858R/T790M/C797S = EGFR L858R/T790M/C797S (Homo sapiens, UniProt P00533, C797S/L858R/T790M); test: Biochemical EGFR kinase inhibition assay (Lance Ultra TR-FRET), triple mutant L858R/T790M/C797S
Method in brief: as §1

EGFR Del19/C797S = EGFR Del19/C797S (Homo sapiens, UniProt P00533, C797S/DEL746-750); test: Biochemical EGFR kinase inhibition assay (Lance Ultra TR-FRET), double mutant del19/C797S
Method in brief: as §1

EGFR L858R/C797S = EGFR L858R/C797S (Homo sapiens, UniProt P00533, C797S/L858R); test: Biochemical EGFR kinase inhibition assay (Lance Ultra TR-FRET), double mutant L858R/C797S
Method in brief: as §1

EGFR wildtype (WT) = EGFR wildtype (WT) (Homo sapiens, UniProt P00533); test: Biochemical EGFR kinase inhibition assay (Lance Ultra TR-FRET), wildtype
Method in brief: as §1

[1] = ATP at Km, read-out: IC50 Del19/T790M/C797S (nM), Km ATP
[2] = IC50 Del19/T790M/C797S (nM), 100 μM ATP
[3] = ATP at Km, read-out: IC50 L858R/T790M/C797S (nM), Km ATP
[4] = IC50 L858R/T790M/C797S (nM), 100 μM ATP
[5] = ATP at Km, read-out: IC50 Del19/C797S (nM), Km ATP
[6] = IC50 Del19/C797S (nM), 100 μM ATP
[7] = ATP at Km, read-out: IC50 L858R/C797S (nM), Km ATP
[8] = IC50 L858R/C797S (nM), 100 μM ATP
[9] = ATP at Km, read-out: IC50 WT (nM), Km ATP
[10] = Km ATP, read-out: IC50 Del19/T790M/C797S (nM), Km ATP
[11] = Km ATP, read-out: IC50 L858R/T790M/C797S (nM), Km ATP
[12] = Km ATP, read-out: IC50 Del19/C797S (nM), Km ATP
[13] = Km ATP, read-out: IC50 L858R/C797S (nM), Km ATP
[14] = Km ATP, read-out: IC50 WT (nM), Km ATP
[15] = Km ATP, read-out: IC50 Del19/T790M/C797S (nM) Km ATP
[16] = Km ATP, read-out: IC50 L858R/T790M/C797S (nM) Km ATP
[17] = Km ATP, read-out: IC50 Del19/C797S (nM) Km ATP
[18] = Km ATP, read-out: IC50 L858R/C797S (nM) Km ATP
[19] = Km ATP, read-out: IC50 WT (nM) Km ATP

EGFR Del19/C797S, sequence (P00533 with tags, fused parts or gaps DEL746-750/C797S): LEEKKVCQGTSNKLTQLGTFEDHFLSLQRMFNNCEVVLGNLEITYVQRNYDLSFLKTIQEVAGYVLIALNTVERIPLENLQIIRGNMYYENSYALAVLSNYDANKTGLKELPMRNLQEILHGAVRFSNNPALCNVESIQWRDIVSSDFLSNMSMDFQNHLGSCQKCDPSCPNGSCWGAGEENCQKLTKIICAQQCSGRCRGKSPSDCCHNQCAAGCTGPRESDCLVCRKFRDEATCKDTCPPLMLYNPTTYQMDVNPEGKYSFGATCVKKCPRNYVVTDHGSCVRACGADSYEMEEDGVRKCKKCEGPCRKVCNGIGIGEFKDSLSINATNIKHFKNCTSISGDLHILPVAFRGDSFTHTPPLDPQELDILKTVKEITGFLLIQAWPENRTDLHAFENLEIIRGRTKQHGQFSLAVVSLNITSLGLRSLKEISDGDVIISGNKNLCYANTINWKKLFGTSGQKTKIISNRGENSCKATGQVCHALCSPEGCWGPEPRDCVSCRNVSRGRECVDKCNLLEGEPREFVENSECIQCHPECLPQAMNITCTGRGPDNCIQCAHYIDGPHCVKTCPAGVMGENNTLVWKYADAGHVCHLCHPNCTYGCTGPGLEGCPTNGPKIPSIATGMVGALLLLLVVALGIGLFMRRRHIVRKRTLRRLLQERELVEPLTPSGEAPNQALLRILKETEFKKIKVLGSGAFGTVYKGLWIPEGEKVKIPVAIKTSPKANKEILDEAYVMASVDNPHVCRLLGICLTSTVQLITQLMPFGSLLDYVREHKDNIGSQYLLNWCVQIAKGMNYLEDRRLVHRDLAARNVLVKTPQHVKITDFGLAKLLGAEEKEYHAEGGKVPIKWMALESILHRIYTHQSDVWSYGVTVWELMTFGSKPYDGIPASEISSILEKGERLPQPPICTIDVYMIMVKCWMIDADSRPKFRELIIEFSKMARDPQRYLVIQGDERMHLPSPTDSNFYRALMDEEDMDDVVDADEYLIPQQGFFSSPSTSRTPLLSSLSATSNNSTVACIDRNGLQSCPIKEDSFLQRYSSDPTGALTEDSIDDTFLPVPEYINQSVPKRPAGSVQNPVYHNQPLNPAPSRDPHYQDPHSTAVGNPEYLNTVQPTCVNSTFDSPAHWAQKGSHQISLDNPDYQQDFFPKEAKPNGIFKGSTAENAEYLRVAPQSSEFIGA
EGFR L858R/C797S, sequence (P00533 25-1210 C797S/L858R): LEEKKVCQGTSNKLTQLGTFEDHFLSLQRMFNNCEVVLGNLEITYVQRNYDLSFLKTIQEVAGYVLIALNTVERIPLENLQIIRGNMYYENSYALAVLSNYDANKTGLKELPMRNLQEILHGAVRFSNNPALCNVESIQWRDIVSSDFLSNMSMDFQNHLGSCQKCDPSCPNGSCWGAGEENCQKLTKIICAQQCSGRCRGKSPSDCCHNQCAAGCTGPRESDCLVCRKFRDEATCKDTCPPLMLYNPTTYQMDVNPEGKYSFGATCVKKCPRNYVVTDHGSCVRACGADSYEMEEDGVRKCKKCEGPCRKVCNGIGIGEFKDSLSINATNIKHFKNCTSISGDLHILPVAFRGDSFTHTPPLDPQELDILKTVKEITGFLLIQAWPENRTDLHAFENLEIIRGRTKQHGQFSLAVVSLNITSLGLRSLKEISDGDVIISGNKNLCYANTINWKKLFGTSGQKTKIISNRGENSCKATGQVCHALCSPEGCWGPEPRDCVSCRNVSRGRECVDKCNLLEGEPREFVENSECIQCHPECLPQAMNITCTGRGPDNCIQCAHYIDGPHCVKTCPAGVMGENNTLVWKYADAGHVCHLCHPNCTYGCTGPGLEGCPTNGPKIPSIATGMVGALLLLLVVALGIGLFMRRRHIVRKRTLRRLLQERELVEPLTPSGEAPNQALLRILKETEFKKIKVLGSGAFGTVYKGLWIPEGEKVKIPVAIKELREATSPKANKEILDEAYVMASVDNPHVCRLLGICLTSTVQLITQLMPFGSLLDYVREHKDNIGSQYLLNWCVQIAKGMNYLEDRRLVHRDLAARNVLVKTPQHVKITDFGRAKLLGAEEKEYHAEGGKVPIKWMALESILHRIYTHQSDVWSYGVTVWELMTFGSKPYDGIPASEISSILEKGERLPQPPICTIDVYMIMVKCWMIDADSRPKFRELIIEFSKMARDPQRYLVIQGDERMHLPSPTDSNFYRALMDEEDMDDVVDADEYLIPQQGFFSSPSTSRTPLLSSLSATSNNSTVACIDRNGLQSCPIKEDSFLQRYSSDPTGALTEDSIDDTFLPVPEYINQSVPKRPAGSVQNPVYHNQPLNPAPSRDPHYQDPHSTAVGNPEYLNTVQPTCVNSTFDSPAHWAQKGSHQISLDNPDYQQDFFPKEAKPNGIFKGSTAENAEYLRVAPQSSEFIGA
EGFR Del19/T790M/C797S, sequence (P00533 with tags, fused parts or gaps DEL746-750/T790M/C797S): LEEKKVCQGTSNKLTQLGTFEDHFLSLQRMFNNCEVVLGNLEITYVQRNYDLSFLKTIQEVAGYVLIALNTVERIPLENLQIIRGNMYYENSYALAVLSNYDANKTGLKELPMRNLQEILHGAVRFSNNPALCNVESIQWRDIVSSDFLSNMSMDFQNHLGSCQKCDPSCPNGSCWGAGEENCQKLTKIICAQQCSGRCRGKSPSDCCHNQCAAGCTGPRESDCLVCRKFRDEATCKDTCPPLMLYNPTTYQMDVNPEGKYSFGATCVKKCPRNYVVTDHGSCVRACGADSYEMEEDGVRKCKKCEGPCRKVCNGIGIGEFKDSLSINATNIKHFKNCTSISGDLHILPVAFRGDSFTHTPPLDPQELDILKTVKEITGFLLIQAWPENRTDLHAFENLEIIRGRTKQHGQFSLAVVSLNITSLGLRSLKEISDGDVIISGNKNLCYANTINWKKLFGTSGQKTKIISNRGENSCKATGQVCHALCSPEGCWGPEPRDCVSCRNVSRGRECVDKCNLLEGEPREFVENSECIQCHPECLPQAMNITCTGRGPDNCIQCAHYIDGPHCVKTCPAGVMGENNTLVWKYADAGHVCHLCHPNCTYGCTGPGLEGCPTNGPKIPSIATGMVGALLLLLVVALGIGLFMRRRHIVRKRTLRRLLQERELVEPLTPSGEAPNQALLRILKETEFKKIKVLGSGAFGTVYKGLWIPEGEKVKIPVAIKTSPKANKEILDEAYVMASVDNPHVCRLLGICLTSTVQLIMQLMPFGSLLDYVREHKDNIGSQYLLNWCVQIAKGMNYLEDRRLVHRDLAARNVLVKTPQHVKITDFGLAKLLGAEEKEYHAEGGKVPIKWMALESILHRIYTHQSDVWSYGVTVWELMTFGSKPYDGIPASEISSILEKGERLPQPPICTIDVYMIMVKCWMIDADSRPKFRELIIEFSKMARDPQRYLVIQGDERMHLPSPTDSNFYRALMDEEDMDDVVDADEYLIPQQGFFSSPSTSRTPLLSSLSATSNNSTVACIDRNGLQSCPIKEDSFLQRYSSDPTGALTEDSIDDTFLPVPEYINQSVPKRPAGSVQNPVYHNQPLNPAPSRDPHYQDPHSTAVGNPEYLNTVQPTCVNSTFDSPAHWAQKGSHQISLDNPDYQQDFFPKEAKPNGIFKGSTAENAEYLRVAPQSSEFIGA
EGFR L858R/T790M/C797S, sequence (P00533 25-1210 T790M/C797S/L858R): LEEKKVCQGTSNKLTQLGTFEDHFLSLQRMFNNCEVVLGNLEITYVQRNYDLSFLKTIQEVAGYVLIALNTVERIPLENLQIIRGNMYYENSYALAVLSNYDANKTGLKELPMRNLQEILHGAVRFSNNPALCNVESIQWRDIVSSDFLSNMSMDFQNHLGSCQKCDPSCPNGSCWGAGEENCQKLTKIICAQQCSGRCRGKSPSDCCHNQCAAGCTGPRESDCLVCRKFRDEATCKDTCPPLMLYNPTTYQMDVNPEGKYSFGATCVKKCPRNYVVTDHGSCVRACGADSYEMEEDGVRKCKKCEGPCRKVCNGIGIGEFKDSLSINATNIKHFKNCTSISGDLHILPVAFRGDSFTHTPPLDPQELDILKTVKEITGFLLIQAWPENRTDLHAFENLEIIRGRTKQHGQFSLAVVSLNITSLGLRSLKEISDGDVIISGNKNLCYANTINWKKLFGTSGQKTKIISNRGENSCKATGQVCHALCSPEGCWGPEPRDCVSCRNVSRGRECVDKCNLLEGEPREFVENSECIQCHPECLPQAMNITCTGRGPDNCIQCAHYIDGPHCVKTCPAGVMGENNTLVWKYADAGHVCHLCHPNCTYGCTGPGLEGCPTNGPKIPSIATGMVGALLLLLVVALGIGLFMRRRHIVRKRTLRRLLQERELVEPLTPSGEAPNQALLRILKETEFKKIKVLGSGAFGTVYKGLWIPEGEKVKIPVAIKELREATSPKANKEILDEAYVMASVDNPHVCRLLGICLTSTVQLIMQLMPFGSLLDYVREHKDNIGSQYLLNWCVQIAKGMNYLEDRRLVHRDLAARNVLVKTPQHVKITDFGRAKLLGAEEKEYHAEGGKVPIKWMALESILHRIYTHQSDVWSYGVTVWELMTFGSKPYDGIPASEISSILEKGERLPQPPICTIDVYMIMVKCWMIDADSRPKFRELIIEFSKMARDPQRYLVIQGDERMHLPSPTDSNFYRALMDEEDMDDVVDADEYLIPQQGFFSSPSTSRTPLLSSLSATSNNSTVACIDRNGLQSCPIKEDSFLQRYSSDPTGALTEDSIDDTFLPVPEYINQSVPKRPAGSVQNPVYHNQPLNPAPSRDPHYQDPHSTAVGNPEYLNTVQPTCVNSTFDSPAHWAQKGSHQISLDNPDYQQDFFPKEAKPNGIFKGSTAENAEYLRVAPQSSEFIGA

SMILES | IC50 (EGFR Del19/T790M/C797S; [1]) [nM] | IC50 (EGFR Del19/T790M/C797S; [2]) [nM] | IC50 (EGFR L858R/T790M/C797S; [3]) [nM] | IC50 (EGFR L858R/T790M/C797S; [4]) [nM] | IC50 (EGFR Del19/C797S; [5]) [nM] | IC50 (EGFR Del19/C797S; [6]) [nM] | IC50 (EGFR L858R/C797S; [7]) [nM] | IC50 (EGFR L858R/C797S; [8]) [nM] | IC50 (EGFR wildtype (WT); [9]) [nM] | IC50 (EGFR wildtype (WT); IC50 WT (nM), 100 μM ATP) [nM] | IC50 (EGFR Del19/T790M/C797S; [10]) [nM] | IC50 (EGFR L858R/T790M/C797S; [11]) [nM] | IC50 (EGFR Del19/C797S; [12]) [nM] | IC50 (EGFR L858R/C797S; [13]) [nM] | IC50 (EGFR wildtype (WT); [14]) [nM] | IC50 (EGFR Del19/T790M/C797S; [15]) [nM] | IC50 (EGFR L858R/T790M/C797S; [16]) [nM] | IC50 (EGFR Del19/C797S; [17]) [nM] | IC50 (EGFR L858R/C797S; [18]) [nM] | IC50 (EGFR wildtype (WT); [19]) [nM]
CC1(CO)CCN(c2cc(Nc3ccnc(Nc4ccccc4S(C)(=O)=O)n3)ncc2C#Cc2cnn(C(F)F)c2)CC1 [Example 271, (1-(5-((1-(Difluoromethyl)-1H-pyrazol-4-yl)ethynyl)-2-((2-((2-(methylsulfonyl)phenyl)amino)pyrimidin-4-yl)amino)pyridin-4-yl)-4-methylpiperidin-4-yl)methanol] | 1.8 | 3 | 6.7 | 9.2 | 68.5 | 111 | 439 | > 10000 | 411 | > 10000 |  |  |  |  |  |  |  |  |  | 
CC1(CO)CCN(c2cc(Nc3ccnc(-c4cnn(S(=O)(=O)C5CC5)c4)n3)ncc2C#CC2CCO[C@H]2C(F)(F)F)CC1 (stereo partly drawn) [Example 421, (1-(2-((2-(1-(Cyclopropylsulfonyl)-1H-pyrazol-4-yl)pyrimidin-4-yl)amino)-5-(((2R)-2-(trifluoromethyl)tetrahydrofuran-3-yl)ethynyl)pyridin-4-yl)-4-methylpiperidin-4-yl)methanol] |  | 1.8 |  | 2.3 |  | 5.8 |  | 117 |  | > 10000 | 1.5 | 0.8 | 4 | 17.2 | 35.1 |  |  |  |  | 
CC1(CO)CCN(c2cc(Nc3ccnc(-c4cnn(S(=O)(=O)C5CC5)c4)n3)ncc2C#CC2CCCO2)CC1 (stereo not shown) [Example 378, (1-(2-((2-(1-(Cyclopropylsulfonyl)-1H-pyrazol-4-yl)pyrimidin-4-yl)amino)-5-((tetrahydrofuran-2-yl)ethynyl)pyridin-4-yl)-4-methylpiperidin-4-yl)methanol] |  | 0.3 |  | 0.4 |  | 1 |  | 34 |  | 2900 | 0.1 | 0.1 | 0.5 | 1.3 | 3.9 |  |  |  |  | 
CC1(CO)CCN(c2cc(Nc3ccnc(-c4cnn(S(=O)(=O)C5CC5)c4)n3)ncc2C#Cc2cnn(CCN3CCOCC3)c2)CC1 [Example 232, (1-(2-((2-(1-(Cyclopropylsulfonyl)-1H-pyrazol-4-yl)pyrimidin-4-yl)amino)-5-((1-(2-morpholinoethyl)-1H-pyrazol-4-yl)ethynyl)pyridin-4-yl)-4-methylpiperidin-4-yl)methanol] |  | 1.3 |  | 1.3 |  | 1.1 |  | 5.9 |  | 719 |  |  |  |  |  | 0.8 | 0.5 | 0.4 | 0.2 | 0.9
CC1(O)CCC(CNc2cc(Nc3ccnc(-c4cnn(S(=O)(=O)C5CC5)c4)n3)ncc2C#CC2CCCO2)CC1 (stereo not shown) [Example 377, (1 r,4r)-4-(((2-((2-(1-(Cyclopropylsulfonyl)-1H-pyrazol-4-yl)pyrimidin-4-yl)amino)-5-((tetrahydrofuran-2-yl)ethynyl)pyridin-4-yl)amino)methyl)-1-methylcyclohexan-1-ol] |  | 4.1 |  | 10.6 |  | 34.6 |  | 1550 |  | > 10000 | 3 | 1.2 | 20.3 | 52.2 | 132 |  |  |  |  | 
Cn1cc(C#Cc2cnc(Nc3ccnc(-c4cnn(S(=O)(=O)C5CC5)c4)n3)cc2N2CCC(CCO)CC2)c(C(F)(F)F)n1 [Example 91, 2-(1-(2-((2-(1-(Cyclopropylsulfonyl)-1H-pyrazol-4-yl)pyrimidin-4-yl)amino)-5-((1-methyl-3-(trifluoromethyl)-1H-pyrazol-4-yl)ethynyl)pyridin-4-yl)piperidin-4-yl)ethan-1-ol] |  | 5.6 |  | 13.9 |  | 76.8 |  | 166 |  | > 10000 |  |  |  |  |  |  |  |  |  | 

Further lines, results first:

IC50 (EGFR Del19/T790M/C797S; [1]) [nM] | IC50 (EGFR Del19/T790M/C797S; [2]) [nM] | IC50 (EGFR L858R/T790M/C797S; [3]) [nM] | IC50 (EGFR L858R/T790M/C797S; [4]) [nM] | IC50 (EGFR Del19/C797S; [5]) [nM] | IC50 (EGFR Del19/C797S; [6]) [nM] | IC50 (EGFR L858R/C797S; [7]) [nM] | IC50 (EGFR L858R/C797S; [8]) [nM] | IC50 (EGFR wildtype (WT); [9]) [nM] | IC50 (EGFR wildtype (WT); IC50 WT (nM), 100 μM ATP) [nM] | IC50 (EGFR Del19/T790M/C797S; [10]) [nM] | IC50 (EGFR L858R/T790M/C797S; [11]) [nM] | IC50 (EGFR Del19/C797S; [12]) [nM] | IC50 (EGFR L858R/C797S; [13]) [nM] | IC50 (EGFR wildtype (WT); [14]) [nM] | IC50 (EGFR Del19/T790M/C797S; [15]) [nM] | IC50 (EGFR L858R/T790M/C797S; [16]) [nM] | IC50 (EGFR Del19/C797S; [17]) [nM] | IC50 (EGFR L858R/C797S; [18]) [nM] | IC50 (EGFR wildtype (WT); [19]) [nM] | SMILES
1.9 | 5.2 | 2.2 | 6.2 | 55.5 | 771 | 17.6 | 45.5 | 272 | > 10000 |  |  |  |  |  |  |  |  |  |  | O=S(=O)(C1CC1)n1cc(-c2nccc(Nc3cc(N4CCC(C5(O)CC5)CC4)c(C#Cc4cnn(C(F)(F)F)c4)cn3)n2)cn1 [Example 330, 1-(1-(2-((2-(1-(Cyclopropylsulfonyl)-1H-pyrazol-4-yl)pyrimidin-4-yl)amino)-5-((1-(trifluoromethyl)-1H-pyrazol-4-yl)ethynyl)pyridin-4-yl)piperidin-4-yl)cyclopropan-1-ol]
5.7 | 7.3 | 2.5 | 6.2 | 4.1 | 10.1 | 3.8 | 65.6 | 64.8 | > 10000 |  |  |  |  |  |  |  |  |  |  | O=S(=O)(C1CC1)n1cc(-c2nccc(Nc3cc(N[C@@H]4CCC[C@H](O)C4)c(C#Cc4ccc(CN5CCOCC5)cc4)cn3)n2)cn1 [Example 160, (1S,3R)-3-((2-((2-(1-(Cyclopropylsulfonyl)-1H-pyrazol-4-yl)pyrimidin-4-yl)amino)-5-((4-(morpholinomethyl)phenyl)ethynyl)pyridin-4-yl)amino)cyclohexan-1-ol]
 | 2.7 |  | 5.3 |  | 64 |  | 103 |  | > 10000 |  |  |  |  |  |  |  |  |  |  | O=S(=O)(C1CC1)n1cc(-c2nccc(Nc3cc(N[C@H]4CC[C@](O)(CO)CC4)c(C#Cc4cnn(C(F)F)c4)cn3)n2)cn1 [Example 304, (1s,4s)-4-((2-((2-(1-(Cyclopropylsulfonyl)-1H-pyrazol-4-yl)pyrimidin-4-yl)amino)-5-((1-(difluoromethyl)-1H-pyrazol-4-yl)ethynyl)pyridin-4-yl)amino)-1-(hydroxymethyl)cyclohexan-1-ol]
21.2 | 5.9 | 1.7 | 3 | 81.8 | 1080 | 47.6 | 125 | 700 | > 10000 |  |  |  |  |  |  |  |  |  |  | CC(C)(O)C1CCN(c2cc(Nc3ccnc(-c4cnn(S(=O)(=O)C5CC5)c4)n3)ncc2C#Cc2cnn(C(F)(F)F)c2)CC1 [Example 329, 2-(1-(2-((2-(1-(Cyclopropylsulfonyl)-1H-pyrazol-4-yl)pyrimidin-4-yl)amino)-5-((1-(trifluoromethyl)-1H-pyrazol-4-yl)ethynyl)pyridin-4-yl)piperidin-4-yl)propan-2-ol]
 | 1.1 |  | 1.2 |  | 3.2 |  | 11.5 |  | > 10000 |  |  |  |  |  |  |  |  |  |  | O=S(=O)(C1CC1)n1cc(-c2nccc(Nc3cc(N[C@H]4CC[C@@H](O)CC4)c(C#Cc4cnn(CCF)c4)cn3)n2)cn1 [Example 42, (1s,4s)-4-((2-((2-(1-(Cyclopropylsulfonyl)-1H-pyrazol-4-yl)pyrimidin-4-yl)amino)-5-((1-(2-fluoroethyl)-1H-pyrazol-4-yl)ethynyl)pyridin-4-yl)amino)cyclohexan-1-ol]
 | 0.9 |  | 3.4 |  | 49.1 |  | 1900 |  | > 10000 |  |  |  |  |  | 0.7 | 0.7 | 48.7 | 13.7 | 256 | Cn1ccc(C#Cc2cnc(Nc3ccnc(-c4cnn(S(=O)(=O)C5CC5)c4)n3)cc2N2CCC(NCCF)CC2)n1 [Example 141, 2-(1-(Cyclopropylsulfonyl)-1H-pyrazol-4-yl)-N-(4-(4-((2-fluoroethyl)amino)piperidin-1-yl)-5-((1-methyl-1H-pyrazol-3-yl)ethynyl)pyridin-2-yl)pyrimidin-4-amine]
0.1 | 0.4 | 0.03 | 1.3 | 2.3 | 6.5 | 4.2 | 34.1 | 8.6 | > 10000 |  |  |  |  |  |  |  |  |  |  | CN(C)CC1(F)CCN(c2cc(Nc3ccnc(-c4cnn(S(=O)(=O)C5CC5)c4)n3)ncc2C#Cc2cnn(C)c2)CC1 [Example 293, 2-(1-(Cyclopropylsulfonyl)-1H-pyrazol-4-yl)-N-(4-(4-((dimethylamino)methyl)-4-fluoropiperidin-1-yl)-5-((1-methyl-1H-pyrazol-4-yl)ethynyl)pyridin-2-yl)pyrimidin-4-amine formate]
